{"source": "patent US20090118202A1", "about": "“COMPOSITIONS AND METHODS OF TREATING HYPERTENSION WITH TANNIN COMPLEXES” (Texas Tech University, priority 2007, published 2009)", "key": {"MAP-kinases p42 and p44": {"tested_on": "MAP-kinases p42 and p44", "experiment": "MAP-kinase phosphorylation in rat liver cells exposed to tannic acid (Western blot)", "assay_type": "cell-based", "settings": "pretreatment of cells with the inhibitor", "protocol": "FIGS. 6A-6C are images of a Western blot illustrating rat liver cells exposed to tannic acid in the presence or absence of the MAP-Kinase specific cell permeable inhibitor PD 98059 for 20 hours and total cell extracts were prepared. Equal amount of proteins were resolved by 8% polyacrylamide gel electrophoresis and immunoblotted with phospho-specific MAP-Kinase antibody in FIG. 6A, anti-MAP-kinase antibody in FIG. 6B, AT1 specific antibody in FIG. 6C top or anti-beta-actin antibody in FIG. 6C bottom. Immunoreactive bands were visualized using a chemiluminescence Western blotting system according to the manufacturer's instruction. In each plate protein concentration was determined using Bio-Rad protein assay reagent."}, "AT1 receptor": {"tested_on": "AT1 receptor", "experiment": "AT1 specific AngII binding in WB cells exposed to tannic acid", "assay_type": "cell-based, rat", "settings": "pretreatment of cells with the inhibitor", "protocol": "The present invention provides the use of hydrolysable tannic acids to affect angiotensin type 1 (AT1) receptor expression. The present invention used WB (i.e., a continuously passaged rat liver epithelial cell line) which expresses the native AT1 receptor. Under normal culture conditions, cells were exposed to tannic acid and changes in receptor expression and signaling intermediates were determined.\nFIG. 3A is an image of a plot illustrating the effects of tannic acid on native AT1, rat liver cells were exposed to tannic acid at indicated concentration for 20 hours."}}, "data": [{"smiles": "COc1cccc(-c2cc(=O)c3ccccc3o2)c1N", "note": "[MAP kinase specific inhibitor, PD98059]", "values": [{"measurement": "prevention of tannic acid induced MAP-kinases phosphorylation", "setting": "MAP-kinases p42 and p44", "result": "ineffective"}, {"measurement": "prevention of tannic acid induced down regulation of the AT1 receptor", "setting": "AT1 receptor", "result": "ineffective"}]}]}
